Measured values: patent US20210292330A1, “PYRROLIDINE-FUSED HETEROCYCLES” (Erasca, Inc., priority 2020, published 2021)

Target: T1, KRAS 4B G12C protein (Homo sapiens, UniProt P01116, G12C)
T1 construct: This protein contained 188 amino acids in total, including an N-terminal 6-Histidine tag; made in house; host or cells: E. coli BL21
Experiment: In vitro covalent adduct formation (CAF) assay by LC-MS
Type: binding
Settings: compound 10 μM, protein 5 μM, 22° C., percentage of protein bound by the compound
How it was run: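 Recombinant His-TEV-tagged KRAS 4B G12C (residues 1-169, E. coli) at 5 μM in Tris-buffered saline pH 7.4 was incubated with 10 μM compound (4% DMSO) at 22° C. for one hour, sampling over time. Intact-mass LC-MS free:adduct ratios gave % protein bound; duplicates.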

Compound: C=CC(=O)N1CCN(c2nc(OC[C@@H]3CCCN3C)nc3c2CN(Cc2cccc4c2CCO4)C3)C[C@@H]1CC#N [1-143]
- CAF (10 minutes/60 minutes) at 10 micromolar: 10 minutes: 48%
- CAF (10 minutes/60 minutes) at 10 micromolar: 60 minutes: 70%

Compound: C#CC[C@H]1CN(c2nc(OC[C@@H]3CCCN3C)nc3c2CN(C2CCc4ccccc42)C3)CCN1C(=O)C=C (stereo partly drawn) [1-144, 1-((2S)-4-(6-(2,3-dihydro-1H-inden-1-yl)-2-(((S)-1-methylpyrrolidin-2-yl)methoxy)-6,7-dihydro-5H-pyrrolo[3,4-d]pyrimidin-4-yl)-2-(prop-2-yn-1-yl)piperazin-1-yl)prop-2-en-1-one]
- CAF (10 minutes/60 minutes) at 10 micromolar: 10 minutes: 15%
- CAF (10 minutes/60 minutes) at 10 micromolar: 60 minutes: 35%

Compound: C=CC(=O)N1CCN(c2nc(OC[C@@H]3CCCN3C)nc3c2CN(C2CCc4ccccc42)C3)C[C@H]1C#N (stereo partly shown) [1-145]
- CAF (10 minutes/60 minutes) at 10 micromolar: 10 minutes: 60%
- CAF (10 minutes/60 minutes) at 10 micromolar: 60 minutes: 74%

Compound: C=CC(=O)N1CCN(c2nc(CC[C@@H]3CCCN3C)nc3c2CN(C2CCc4ccccc42)C3)C[C@@H]1CC#N (stereo partly shown) [1-146]
- CAF (10 minutes/60 minutes) at 10 micromolar: 10 minutes: 7%
- CAF (10 minutes/60 minutes) at 10 micromolar: 60 minutes: 33%

Compound: C=CC(=O)N1CCN(c2nc(OC[C@@H]3CCCN3CC(F)F)nc3c2CN(C2CCc4ccccc42)C3)C[C@@H]1CC#N (stereo partly shown) [1-147]
- CAF (10 minutes/60 minutes) at 10 micromolar: 10 minutes: 78%
- CAF (10 minutes/60 minutes) at 10 micromolar: 60 minutes: 86%

Compound: C=CC(=O)N1C2CCCC1CN(c1nc(OC[C@@H]3CCCN3C)nc3c1CN(Cc1cc(OC)ccc1Cl)C3)C2 [1-148]
- CAF (10 minutes/60 minutes) at 10 micromolar: 10 minutes: 0%/ 0%
- CAF (10 minutes/60 minutes) at 10 micromolar: 60 minutes: 0%/ 0%

Compound: C=CC(=O)N1C2CCCC1CN(c1nc(OC[C@@H]3CCCN3C)nc3c1CN(Cc1cc(O)ccc1Cl)C3)C2 [1-149]
- CAF (10 minutes/60 minutes) at 10 micromolar: 10 minutes: 0%
- CAF (10 minutes/60 minutes) at 10 micromolar: 60 minutes: 8%

Compound: C=CC(=O)N1CCN(c2nc(OC[C@@H]3CCCN3C)nc3c2CN(C2CCc4ccccc42)C3)[C@@H](C#N)C1 (stereo partly shown) [1-150]
- CAF (10 minutes/60 minutes) at 10 micromolar: 10 minutes: 21%
- CAF (10 minutes/60 minutes) at 10 micromolar: 60 minutes: 31%

Compound: C=CC(=O)N1CCN(c2nc(OC[C@@H]3CCCN3CCF)nc3c2CN(C2CCc4ccccc42)C3)C[C@@H]1CC#N (stereo partly shown) [1-151]
- CAF (10 minutes/60 minutes) at 10 micromolar: 10 minutes: 81%
- CAF (10 minutes/60 minutes) at 10 micromolar: 60 minutes: 91%

Compound: C=CC(=O)N1CCN(c2nc(OC3CC3)nc3c2CN(C2CCc4ccccc42)C3)C[C@@H]1CC#N (stereo partly shown) [1-152]
- CAF (10 minutes/60 minutes) at 10 micromolar: 10 minutes: 2%
- CAF (10 minutes/60 minutes) at 10 micromolar: 60 minutes: 19%

Compound: C=C(F)C(=O)N1CCN(c2nc(OC[C@@H]3CCCN3C)nc3c2CN(C2CCc4cccc(Cl)c42)C3)C[C@@H]1CC#N (stereo partly shown) [1-153]
- CAF (10 minutes/60 minutes) at 10 micromolar: 10 minutes: 46%
- CAF (10 minutes/60 minutes) at 10 micromolar: 60 minutes: 78%

Compound: C=C(F)C(=O)N1CCN(c2nc(OC[C@@H]3CCCN3C)nc3c2CN(C2CCc4cccc(Cl)c42)C3)C[C@@H]1CC#N (stereo partly shown) [1-154]
- CAF (10 minutes/60 minutes) at 10 micromolar: 10 minutes: 52%
- CAF (10 minutes/60 minutes) at 10 micromolar: 60 minutes: 82%

Compound: C=CC(=O)N1CCN(c2nc(OC[C@@H]3CCCN3C)nc3c2CN(C2CCc4ccccc42)C3)C[C@@H]1C#N (stereo partly drawn) [1-155, (2R)-1-acryloyl-4-(6-(2,3-dihydro-1H-inden-1-yl)-2-(((S)-1-methylpyrrolidin-2-yl)methoxy)-6,7-dihydro-5H-pyrrolo[3,4-d]pyrimidin-4-yl)piperazine-2-carbonitrile]
- CAF (10 minutes/60 minutes) at 10 micromolar: 10 minutes: 66%
- CAF (10 minutes/60 minutes) at 10 micromolar: 60 minutes: 82%

Compound: C=CC(=O)N1CCN(c2nc(OC[C@@H]3CCCN3C)nc3c2CN(C2CCc4ccccc42)C3)[C@H](C#N)C1 (stereo partly shown) [1-156]
- CAF (10 minutes/60 minutes) at 10 micromolar: 10 minutes: 11%
- CAF (10 minutes/60 minutes) at 10 micromolar: 60 minutes: 29%

Compound: C=CC(=O)N1CCN(c2nc(OC[C@@H]3CCCN3C)nc3c2CN(Cc2c(Cl)ccc4c2CCCO4)C3)C[C@@H]1CC#N [1-158]
- CAF (10 minutes/60 minutes) at 10 micromolar: 10 minutes: 49%
- CAF (10 minutes/60 minutes) at 10 micromolar: 60 minutes: 89%

Compound: C=CC(=O)N1CCN(c2nc(OC[C@@H]3CCCN3C)nc3c2CN(C2CCc4ccccc42)C3)C[C@@H]1C(N)=O (stereo partly drawn) [1-159, (2R)-1-acryloyl-4-(6-(2,3-dihydro-1H-inden-1-yl)-2-(((S)-1-methylpyrrolidin-2-yl)methoxy)-6,7-dihydro-5H-pyrrolo[3,4-d]pyrimidin-4-yl)piperazine-2-carboxamide]
- CAF (10 minutes/60 minutes) at 10 micromolar: 10 minutes: 10%
- CAF (10 minutes/60 minutes) at 10 micromolar: 60 minutes: 19%

Compound: C=CC(=O)N1CC2CCC1CN2c1nc(OC[C@@H]2CCCN2C)nc2c1CN(Cc1cc(O)ccc1Cl)C2 (stereo partly shown) [1-160]
- CAF (10 minutes/60 minutes) at 10 micromolar: 10 minutes: 34%
- CAF (10 minutes/60 minutes) at 10 micromolar: 60 minutes: 67%

Compound: C=CC(=O)N1CC2CCC1CN2c1nc(OC[C@@H]2CCCN2C)nc2c1CN(Cc1cc(OC)ccc1Cl)C2 (stereo partly shown) [1-161]
- CAF (10 minutes/60 minutes) at 10 micromolar: 10 minutes: 0%/ 0%
- CAF (10 minutes/60 minutes) at 10 micromolar: 60 minutes: 0%/ 0%

Compound: C#C[C@H]1CN(C(=O)C=C)CCN1c1nc(OC[C@@H]2CCCN2C)nc2c1CN(C1CCc3ccccc31)C2 (stereo partly drawn) [1-162, 1-[(3S)-4-[6-(2,3-dihydro-1H-inden-1-yl)-2-{[(2S)-1-methylpyrrolidin-2-yl]methoxy}-5H,7H-pyrrolo[3,4-d]pyrimidin-4-yl]-3-ethynylpiperazin-1-yl]prop-2-en-1-one]
- CAF (10 minutes/60 minutes) at 10 micromolar: 10 minutes: 2%
- CAF (10 minutes/60 minutes) at 10 micromolar: 60 minutes: 12%

Compound: C=CC(=O)N1CCN(c2nc(OC[C@@H]3CCCN3C)nc3c2CN(C2CCc4ccccc42)C3)C[C@H]1C(N)=O (stereo partly shown) [1-163]
- CAF (10 minutes/60 minutes) at 10 micromolar: 60 minutes: NA/ 55%

Compound: C=CC(=O)N1CCN(c2nc(OC[C@@H]3CCCN3C)nc3c2CN(Cc2cccc4ccccc24)C3)C[C@@H]1CC#N [1-164]
- CAF (10 minutes/60 minutes) at 10 micromolar: 10 minutes: 93%
- CAF (10 minutes/60 minutes) at 10 micromolar: 60 minutes: 95%

Compound: C=CC(=O)N1CCN(c2nc(OC[C@@H]3CCCN3C)nc3c2CN(Cc2cc(O)ccc2Cl)C3)CC1 [1-165]
- CAF (10 minutes/60 minutes) at 10 micromolar: 10 minutes: 88%
- CAF (10 minutes/60 minutes) at 10 micromolar: 60 minutes: 96%

Compound: C=CC(=O)N1CCN(c2nc(Oc3cccc4ccn(C)c34)nc3c2CN(C2CCc4ccccc42)C3)C[C@@H]1CC#N (stereo partly shown) [1-166]
- CAF (10 minutes/60 minutes) at 10 micromolar: 10 minutes: 2%
- CAF (10 minutes/60 minutes) at 10 micromolar: 60 minutes: 15%

Compound: C=C(F)C(=O)N1CCN(c2nc(OCCC(F)F)nc3c2CN(C2CCc4ccccc42)C3)C[C@@H]1CC#N (stereo partly shown) [1-167]
- CAF (10 minutes/60 minutes) at 10 micromolar: 60 minutes: NA/ 0%

Compound: C=CC(=O)N1CCN(c2nc(OC[C@@H]3CCCN3C)nc3c2CN(Cc2ccccc2C(C)C)C3)C[C@@H]1CC#N [1-168]
- CAF (10 minutes/60 minutes) at 10 micromolar: 10 minutes: 95%
- CAF (10 minutes/60 minutes) at 10 micromolar: 60 minutes: 97%

Compound: C=CC(=O)N1CCN(c2nc(OC[C@@H]3CCCN3C)nc3c2CN(C2CC(C)(C)c4ccccc42)C3)C[C@@H]1CC#N (stereo partly shown) [1-169]
- CAF (10 minutes/60 minutes) at 10 micromolar: 10 minutes: 63%
- CAF (10 minutes/60 minutes) at 10 micromolar: 60 minutes: 70%

Compound: C=CC(=O)N1CCN(c2nc(O[C@@H]3CN(C)C[C@H]3OC)nc3c2CN(C2CCc4ccccc42)C3)C[C@@H]1CC#N (stereo partly shown) [1-170]
- CAF (10 minutes/60 minutes) at 10 micromolar: 10 minutes: 31%
- CAF (10 minutes/60 minutes) at 10 micromolar: 60 minutes: 53%

Compound: C=CC(=O)N1CCN(c2nc(Oc3cccc4c3CCN(C)C4)nc3c2CN(C2CCc4ccccc42)C3)C[C@@H]1CC#N (stereo partly shown) [1-171]
- CAF (10 minutes/60 minutes) at 10 micromolar: 10 minutes: 9%
- CAF (10 minutes/60 minutes) at 10 micromolar: 60 minutes: 29%

Compound: C=CC(=O)N1CCN(c2nc(OC[C@@H]3CCCN3C)nc3c2CN(Cc2cc(F)ccc2C(C)C)C3)C[C@@H]1CC#N [1-172]
- CAF (10 minutes/60 minutes) at 10 micromolar: 10 minutes: 68%
- CAF (10 minutes/60 minutes) at 10 micromolar: 60 minutes: 73%

Compound: C=CC(=O)N1CCN(c2nc(Oc3cccnc3C3CC3)nc3c2CN(C2CCc4ccccc42)C3)C[C@@H]1CC#N (stereo partly shown) [1-173]
- CAF (10 minutes/60 minutes) at 10 micromolar: 10 minutes: 6%
- CAF (10 minutes/60 minutes) at 10 micromolar: 60 minutes: 24%

Compound: C=CC(=O)N1CCN(c2nc(Oc3cccc4c3CN(C)C4)nc3c2CN(C2CCc4ccccc42)C3)C[C@@H]1CC#N (stereo partly shown) [1-174]
- CAF (10 minutes/60 minutes) at 10 micromolar: 10 minutes: 9%
- CAF (10 minutes/60 minutes) at 10 micromolar: 60 minutes: 28%

Compound: C=CC(=O)N1CCN(c2nc(OC[C@@H]3CCCN3CC)nc3c2CN(C2CCc4ccccc42)C3)C[C@@H]1CC#N (stereo partly shown) [1-175]
- CAF (10 minutes/60 minutes) at 10 micromolar: 10 minutes: 60%
- CAF (10 minutes/60 minutes) at 10 micromolar: 60 minutes: 82%

Compound: C=CC(=O)N1CCN(c2nc(OC[C@@H]3CCCN3C(C)C)nc3c2CN(C2CCc4ccccc42)C3)C[C@@H]1CC#N (stereo partly shown) [1-176]
- CAF (10 minutes/60 minutes) at 10 micromolar: 10 minutes: 88%
- CAF (10 minutes/60 minutes) at 10 micromolar: 60 minutes: 94%

Compound: C=CC(=O)N1CCN(c2nc(OC[C@@H]3CCCN3C)nc3c2CN(Cc2cc(O)cc4ccccc24)C3)C[C@@H]1CC#N [1-180]
- CAF (10 minutes/60 minutes) at 10 micromolar: 10 minutes: 94%
- CAF (10 minutes/60 minutes) at 10 micromolar: 60 minutes: 96%

Compound: C=CC(=O)N1CCN(c2nc(OC[C@@H]3CCCN3C)nc3c2C(C(F)(F)F)N(Cc2ccccc2)C3)C[C@@H]1CC#N (stereo partly drawn) [1-181, 2-((2S)-1-acryloyl-4-(6-benzyl-2-(((S)-1-methylpyrrolidin-2-yl)methoxy)-5-(trifluoromethyl)-6,7-dihydro-5H-pyrrolo[3,4-d]pyrimidin-4-yl)piperazin-2-yl)acetonitrile]
- CAF (10 minutes/60 minutes) at 10 micromolar: 10 minutes: 0%/ 0%
- CAF (10 minutes/60 minutes) at 10 micromolar: 60 minutes: 0%/ 0%

Compound: C=CC(=O)N1CCN(c2nc(OC[C@@H]3CCCN3C)nc3c2CN(C2CCc4ccccc42)C3)[C@H](C(N)=O)C1 (stereo partly shown) [1-182]
- CAF (10 minutes/60 minutes) at 10 micromolar: 10 minutes: 7%
- CAF (10 minutes/60 minutes) at 10 micromolar: 60 minutes: 30%

Compound: C=CC(=O)N1CCN(c2nc(OC[C@@H]3CCCN3C)nc3c2CN(Cc2c(Cl)c(F)cc4[nH]ncc24)C3)C[C@@H]1CC#N [1-183]
- CAF (10 minutes/60 minutes) at 10 micromolar: 10 minutes: 63%
- CAF (10 minutes/60 minutes) at 10 micromolar: 60 minutes: 93%

Compound: C=CC(=O)N1CCN(c2nc(OC[C@@H]3CCCN3C)nc3c2CN(Cc2cc(O)ccc2CC)C3)C[C@@H]1CC#N [1-184]
- CAF (10 minutes/60 minutes) at 10 micromolar: 10 minutes: 96%
- CAF (10 minutes/60 minutes) at 10 micromolar: 60 minutes: 97%

Compound: C=CC(=O)N1CCN(c2nc(OC[C@@H]3CCCN3C)nc3c2CN(Cc2cc(O)ccc2C(C)C)C3)C[C@@H]1CC#N [1-185]
- CAF (10 minutes/60 minutes) at 10 micromolar: 10 minutes: 96%
- CAF (10 minutes/60 minutes) at 10 micromolar: 60 minutes: 97%
